Reference: patent US9049866B2, “Synergistic herbicidal combination of clomazone and pethoxamid” (CHEMINOVA A/S, priority 2008, dated 2015)

How the values were obtained:
Format in all cases: in vivo
[1] = system: Echinochloa crus-galli; experiment: Field test in sunflowers, control of Echinochloa crus-galli (Example 1); details: sunflower field, spraying, clomazone 90 g/ha, pethoxamid 1200 g/ha, combination 90+1200 g/ha, 55 days after application, 0 = no damage, 100 = complete destruction
Text: (§1) In the Colby method, also referred to as the Limpels method, the action to be expected E for a given active ingredient combination obeys the so-called Colby formula. According to Colby, the expected action of active ingredients A+B using p+q ppm of active ingredient is:
(§2) [formula] where ppm=milligrams of active ingredient (=a.i.) per liter of spray mixture X=% action by component A using p ppm of active ingredient Y=% action by component B using q ppm of active ingredient. If the ratio R defined as the action actually observed (O) divided by the expected action (E) is >1 then the action of the combination is superadditive, i.e. there is a synergistic effect. […]
(§3) The herbicidal compounds A and B were applied in the formulation in which they are present as commercially available product. Damage by the herbicidal compositions was evaluated with reference to a scale of 0% to 100% in comparison with untreated control plots. […]
(§4) In a field of sunflowers, clomazone (rate of 90 g/ha) and pethoxamid (rate of 1200 g/ha) were applied individually and in combination (90+1200 g/ha) to different plots by spraying. 55 days after application the rate of control of various weeds was recorded. The expected control is calculated according to the Colby method.

[2] = system: Solanum nigrum; experiment: Field test in sunflowers, control of Solanum nigrum (Example 1); details: sunflower field, spraying, clomazone 90 g/ha, pethoxamid 1200 g/ha, combination 90+1200 g/ha, 55 days after application
Text: as §1, §2, §3, §4

[3] = system: Mercurialis annua; experiment: Field test in sunflowers, control of Mercurialis annua (Example 2); details: sunflower field, spraying, clomazone 90 g/ha, pethoxamid 1200 g/ha, combination 90+1200 g/ha, 50 days after application
Text: as §1, §2, §3
as §4, with “50” for “55”

[4] = system: Ambrosia artemisiifolia; experiment: Field test in sunflowers, control of Ambrosia artemisiifolia (Example 2); details: sunflower field, spraying, clomazone 90 g/ha, pethoxamid 1200 g/ha, combination 90+1200 g/ha, 50 days after application
Text: as §1, §2, §3
as §4, with “50” for “55”

[5] = system: Viola arvensis; experiment: Oilseed rape field test, control of Viola arvensis (Example 3); details: spraying, clomazone 72, pethoxamid 1200, combination 72 + 1200 g AI/hectare, 206 days after application
Text: as §1, §2, §3
In an oilseed rape field, Clomazone, and pethoxamid were applied individually and in combination to different plots by spraying. 206 days after application the rate of control of Viola arvensis was recorded. The expected control is calculated according to the Colby method.

[6] = system: Galium aparine; experiment: Oilseed rape field test, control of Galium aparine (Example 4); details: spraying, clomazone 72, pethoxamid 1200, combination 72 + 1200 g AI/hectare, 64 days after application
Text: as §1, §2, §3
In an oilseed rape field, Clomazone, and pethoxamid were applied individually and in combination to different plots by spraying. 64 days after application the rate of control of Galium aparine was recorded. The expected control is calculated according to the Colby method.

CC1(C)CON(Cc2ccccc2Cl)C1=O [Clomazone, clomazone]
Control observed (O) % [1]: 50% | Control observed (O) % [2]: 37% | Control observed (O) % [3]: 13% | Control observed (O) % [4]: 10% | Control observed (O) % [5]: 0% | Control observed (O) % [6]: 40%

CCOCCN(C(=O)CCl)C(=C(C)C)c1ccccc1 [Pethoxamid, pethoxamid]
Control observed (O) % [1]: 47% | Control observed (O) % [2]: 47% | Control observed (O) % [3]: 27% | Control observed (O) % [4]: 10% | Control observed (O) % [5]: 50% | Control observed (O) % [6]: 0%
